The target of data set [1] is T1, P-gp (Homo sapiens, UniProt P08183).
T1 construct: the human cholangiocyte-like cells express P-glycoprotein (P-gp); endogenous in cells; host or cells: human cholangiocyte-like cells derived from human bile duct organoids (from human primary hepatocytes), grown as a 2D membrane on a permeable insert
The data set can be described thus: Efflux ratio by P-gp: rhodamine 123 transport (AtoB/BtoA) across human cholangiocyte-like cell-containing membrane. The class given is in vitro ADME. As to conditions: rhodamine 123 10 μM. On the procedure: FIG. 4A and FIG. 4B are graphs showing the measurement results of the transport amount (AtoB) and the transport amount (BtoA). […] In addition, as shown in FIG. 4A and FIG. 4B, approximation curves were each created based on the graphs of the transport amount (AtoB) and the transport amount (BtoA), and the gradient (permeation rate) was calculated. Subsequently, the efflux ratio (Efflux Ratio (ER)) was calculated based on Formula (2).
Efflux ratio=(Permeation rate of BtoA)/(permeation rate of AtoB) (2)
FIG. 6A to FIG. 6D are graphs showing the measurement results of the transport amount (AtoB) and the transport amount (BtoA). […] Each of FIG. 6A, FIG. 6B, FIG. 6C, and FIG. 6D presents the results of using a culture medium including Matrigel (registered trademark) at a concentration of 0, 0.1, 0.5, or 2 v/v %. In addition, as shown in FIG. 6A to FIG. 6D, approximation curves were each created based on the graphs of the transport amount (AtoB) and the transport amount (BtoA), and the gradient (permeation rate) was calculated. Subsequently, the efflux ratio was calculated based on the above-described Formula (2).
FIG. 7A to FIG. 7C are graphs showing the measurement results of the transport amount (AtoB) and the transport amount (BtoA). Each of FIG. 7A, FIG. 7B, and FIG. 7C presents the results of using a container coated with Matrigel (registered trademark) at a concentration of 2, 5, or 10 v/v %. In addition, as shown in FIG. 7A to FIG. 7C, approximation curves were each created based on the graphs of the transport amount (AtoB) and the transport amount (BtoA), and the gradient (permeation rate) was calculated. Subsequently, the efflux ratio was calculated based on the above-described Formula (2).

Data set [2] deals with T2, BCRP (Homo sapiens, UniProt Q9UNQ0).
T2 construct: the human cholangiocyte-like cells further express at least one or more transporters selected from the group consisting of MRP2, BSEP, and BCRP; endogenous in cells; host or cells: human cholangiocyte-like cells (bile duct organoid derived) on a permeable insert
T2 sequence (Q9UNQ0 1-655): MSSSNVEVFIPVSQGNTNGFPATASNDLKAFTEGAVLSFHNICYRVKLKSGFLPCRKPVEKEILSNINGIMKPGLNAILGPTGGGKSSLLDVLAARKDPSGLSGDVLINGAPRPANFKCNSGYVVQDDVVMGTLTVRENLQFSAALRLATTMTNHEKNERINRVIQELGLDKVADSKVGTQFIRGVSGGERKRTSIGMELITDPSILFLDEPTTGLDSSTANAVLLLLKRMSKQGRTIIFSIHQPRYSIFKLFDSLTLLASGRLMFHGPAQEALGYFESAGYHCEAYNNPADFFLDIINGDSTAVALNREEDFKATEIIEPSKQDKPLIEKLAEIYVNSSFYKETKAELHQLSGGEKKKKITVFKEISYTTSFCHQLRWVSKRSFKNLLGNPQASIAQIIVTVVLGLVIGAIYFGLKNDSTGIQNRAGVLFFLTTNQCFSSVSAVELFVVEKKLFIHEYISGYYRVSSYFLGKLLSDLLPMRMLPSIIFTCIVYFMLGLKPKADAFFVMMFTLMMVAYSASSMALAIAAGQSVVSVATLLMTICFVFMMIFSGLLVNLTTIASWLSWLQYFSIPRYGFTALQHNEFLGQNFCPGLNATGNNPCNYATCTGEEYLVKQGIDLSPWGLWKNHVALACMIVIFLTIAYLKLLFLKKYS
The data set is described as follows: Efflux ratio of Hoechst 33342 (BCRP substrate) in biomimetic system. It is filed as in vitro ADME. As to conditions: Hoechst 33342 as substrate; system as Manufacturing Example 1, 15 culture days; average of four measurements. On the procedure: The efflux ratio of Hoechst 33342 (CAS number: 23491-52-3), which is a substrate for BCRP, was measured by using the biomimetic system.
Human cholangiocyte-like cells were manufactured by a method similar to that used in Experimental Example 9. In addition, a biomimetic system was manufactured in the same manner as in Manufacturing Example 1 of Experimental Example 2, except that the number of culture days was set to 15 days. The TEER of the manufactured biomimetic system was measured by the same method as that used in Experimental Example 2, and the value was 284.83 Ω·cm^2.
The transport amounts of Hoechst 33342 were measured in the same manner as in Experimental Example 3, except that Hoechst 33342 was used in place of rhodamine 123 as a substrate. Regarding Hoechst 33342, a solution obtained by dissolving the substance in deionized water to a concentration of 1% by mass was used.
FIG. 12A is a graph showing the results of measuring the transport amount (BtoA) four times, and FIG. 12B is a graph showing the results of measuring the transport amount (AtoB) four times. The axis of abscissa in the graph represents the time (minutes), and the axis of ordinate represents the amount (pmoL) of transported Hoechst 33342. The efflux ratio calculated in the same manner as in Experimental Example 3 from the average value of the results of the four measurements was about 23.0.

T1 sequence (P08183 whole entry): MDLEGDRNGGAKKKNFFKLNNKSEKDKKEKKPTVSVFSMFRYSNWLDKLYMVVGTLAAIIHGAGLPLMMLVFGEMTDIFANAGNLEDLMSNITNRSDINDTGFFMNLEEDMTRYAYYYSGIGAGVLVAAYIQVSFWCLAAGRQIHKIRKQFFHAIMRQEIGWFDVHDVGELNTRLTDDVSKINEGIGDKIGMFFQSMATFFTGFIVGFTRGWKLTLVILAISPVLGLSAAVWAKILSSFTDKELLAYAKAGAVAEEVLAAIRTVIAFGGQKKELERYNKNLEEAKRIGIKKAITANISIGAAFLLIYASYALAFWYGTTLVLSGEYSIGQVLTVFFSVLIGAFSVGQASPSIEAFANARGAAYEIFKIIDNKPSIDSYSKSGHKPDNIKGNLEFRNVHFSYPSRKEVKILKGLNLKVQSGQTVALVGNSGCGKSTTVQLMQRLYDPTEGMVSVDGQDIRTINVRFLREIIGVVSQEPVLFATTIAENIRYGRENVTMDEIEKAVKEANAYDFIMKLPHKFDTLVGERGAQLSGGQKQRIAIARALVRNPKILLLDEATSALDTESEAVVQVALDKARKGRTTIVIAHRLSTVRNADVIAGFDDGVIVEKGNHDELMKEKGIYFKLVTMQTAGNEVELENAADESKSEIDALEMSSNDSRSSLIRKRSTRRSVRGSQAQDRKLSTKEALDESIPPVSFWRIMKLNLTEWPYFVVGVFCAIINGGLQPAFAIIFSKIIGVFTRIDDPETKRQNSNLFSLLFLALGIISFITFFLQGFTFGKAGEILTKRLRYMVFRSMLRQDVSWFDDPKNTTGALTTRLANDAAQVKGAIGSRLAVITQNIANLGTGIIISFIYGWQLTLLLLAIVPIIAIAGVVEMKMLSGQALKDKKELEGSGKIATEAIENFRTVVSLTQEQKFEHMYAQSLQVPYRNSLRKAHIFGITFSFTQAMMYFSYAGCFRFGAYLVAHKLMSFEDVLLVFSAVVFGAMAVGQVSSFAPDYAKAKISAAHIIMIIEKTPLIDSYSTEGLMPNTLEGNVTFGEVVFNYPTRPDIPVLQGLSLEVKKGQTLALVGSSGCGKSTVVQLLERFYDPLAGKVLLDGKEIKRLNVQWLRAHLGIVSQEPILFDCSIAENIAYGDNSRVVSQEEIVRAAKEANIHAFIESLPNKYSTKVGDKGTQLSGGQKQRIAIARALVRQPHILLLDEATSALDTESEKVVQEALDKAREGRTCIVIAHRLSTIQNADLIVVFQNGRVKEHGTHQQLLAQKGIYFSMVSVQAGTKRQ

For rhodamine 123, the Efflux ratio in data set [1] (Production Example 3, Matrigel 0 v/v % in culture medium, Day 17) was 1.7; in data set [1] (Production Example 4, Matrigel 0.1 v/v % in culture medium, Day 17) it was 1.7; in data set [1] (Production Example 5, Matrigel 0.5 v/v % in culture medium, Day 17), 2.2; in data set [1] (Production Example 7, Matrigel 2 v/v % in culture medium, Day 17) it was 1.3; in data set [1] (Production Example 9, insert coated with 2 v/v % Matrigel, 14 culture days) it was 4.93; in data set [1] (Production Example 10, insert coated with 5 v/v % Matrigel, 14 culture days), 4.70. Moreover, the Efflux ratio is 3.89 in data set [1] (Production Example 11, insert coated with 10 v/v % Matrigel, 14 culture days); 7.3 in data set [1] (biomimetic system of Manufacturing Example 2, Day 17 from start of culture); 11.6 in data set [1] (biomimetic system of Manufacturing Example 2, Day 23 from start of culture).

For the compound `CCOc1ccc(-c2nc3ccc(-c4nc5ccc(N6CCN(C)CC6)cc5[nH]4)cc3[nH]2)cc1` [Hoechst 33342], the Efflux ratio result in data set [2] was “about 23.0”.

The values are drawn from patent US20240247215A1, “BIOMIMETIC SYSTEM AND METHOD FOR MANUFACTURING SAME” (JSR CORPORATION, priority 2021, published 2024).
